The text below walks through data of patent publication US8974823B2, “Solid compositions of low-solubility drugs and poloxamers” (Bend Research, Inc., priority 2003, dated 2015).

Holding throughout (type): physicochemical
The nature of data set [1]: glass transition temperature (Tg) of the drug. The conditions noted are these: for Tg: Table B, unless noted Tg measured at less than 10% RH. As to the method: In a first aspect, the invention comprises a solid composition comprising a plurality of particles. The particles comprise a low-solubility drug and a poloxamer. The drug is in intimate contact with the poloxamer in the particles. Collectively, the drug and poloxamer constitute at least 50 wt % of the particles. At least a substantial portion of the drug in the composition is amorphous. The Tg of the drug is at least 50° C. Unless otherwise noted, as used herein the Tg refers to the Tg measured at less than 10% RH.
Such Tg values may represent that of drug dispersed in the amorphous portions of the poloxamer or the Tg of drug-rich phases or domains. […] The Tg of the drug may be at least about 60° C., at least about 70° C., or even at least about 80° C. The Tg of a drug can be determined using standard analytical techniques well known in the art, including by a dynamic mechanical analyzer (DMA), a dilatometer, a dielectric analyzer, and by differential scanning calorimetry (DSC).

Data set [2] is described as follows: in vitro dissolution test of Drug 4 compositions in PBS. The conditions noted are these: for AUC / Drug 4 Concentration: 1000 μg/mL if all dissolved; for Drug 4 Concentration: 37° C. As to the method:
(§1) The solid compositions of Examples 1-2 were evaluated in an in vitro dissolution test to ascertain concentration enhancement of Drug 1. A […] sample of each solid composition was added in duplicate to a microcentrifuge tube, so that the total concentration of Drug 1 would have been 2000 μg/mL if all of the drug had dissolved. The tubes were placed in a 37° C. temperature-controlled chamber, and 1.8 mL PBS containing 0.5 wt % sodium taurocholic acid and 1-palmitoyl-2-oleyl-sn-glycero-3-phosphocholine (NaTC/POPC, with a 4/1 weight ratio) at pH 6.5 and 290 mOsm/kg (simulating a Model Fasted Duodenal solution) was added to each respective tube. The samples were quickly mixed using a vortex mixer for about 60 seconds. The samples were centrifuged at 13,000 G at 37° C. for 1 minute. The resulting supernatant solution was then sampled and diluted 1:6 (by volume) with methanol and then analyzed by high-performance liquid chromatography (HPLC). The contents of each respective tube were mixed on a vortex mixer and allowed to stand undisturbed at 37° C. until the next sample was taken. Samples were collected at 4, 10, 20, 40, 90, and 1200 minutes.
The solid compositions of Examples 10-13 were evaluated in an in vitro dissolution test as in Examples 1-2, except that the dissolution medium was PBS. The amount of each composition added to the microcentrifuge tube was adjusted so that the concentration of Drug 4 in solution if all of the drug had dissolved was 1000 μg/mL.
The spray-dried compositions of Examples 14-15 were evaluated in an in vitro dissolution test as in Examples 10-13. The amount of each composition added to the microcentrifuge tube was adjusted so that the concentration of Drug 4 in solution if all of the drug had dissolved was […].
This composition was evaluated in an in vitro dissolution test as in Examples 10-13.

Data set [3] is described as follows: in vitro dissolution test of Drug 1 compositions in Model Fasted Duodenal solution. The conditions noted are these: for AUC: MFD solution; for AUC / Drug 1 Concentration: 2000 μg/mL if all dissolved; for Drug 1 Concentration: MFD solution pH 6.5, 37° C. The protocol:
as §1
As a control (C1), a sample of crystalline Drug 1 alone was tested in the same manner so that the concentration of Drug 1 in MFD solution would have been 2000 μg/mL if all of the drug had dissolved.
The concentrations of drug obtained in these samples were used to determine the maximum drug concentration (“MDC90”) and the area under the concentration-versus-time curve (“AUC90”) during the initial 90 minutes.

Compound “4-[3-[4-(2-methylimidazol-1-yl) phenylthio] phenyl]-3,4,5,6-tetrahydro-2H-pyran-4-carboxamide hemifumarate” yielded a Tg in data set [1] of 81 °C.
Still for that read-out and setting: under `O=C(O)c1ccc(C(F)(F)F)cc1-c1ccc2c(c1)OCC(Cc1ccccc1)C2O` (single isomer, unassigned; (+)) [(+)-2-(3-benzyl-4hydroxy-chroman-7-yl)-4-trifluoromethyl-benzoic acid] stands 53 °C.
Same read-out and setting: under `CON(C)C(=O)C(O)[C@H](Cc1ccccc1)NC(=O)c1cc2cc(Cl)ccc2[nH]1` (stereo in doubt) [[R—(R*,S*)]-5-chloro-N-[2-hydroxy-3-[(methoxymethylamino)-3-oxo-1-(phenylmethyl)propyl]propyl]-1H-indole-2-carboxamide] stands 80 °C.
As for `CC(C)c1c(C(=O)Nc2ccccc2)c(-c2ccccc2)c(-c2ccc(F)cc2)n1CCC(O)CC(O)CC(=O)[O-].CC(C)c1c(C(=O)Nc2ccccc2)c(-c2ccccc2)c(-c2ccc(F)cc2)n1CCC(O)CC(O)CC(=O)[O-].O.O.O.[Ca+2]` (stereo not drawn) [2-(4-fluorophenyl)-beta, delta-dihydroxy-5-(1-methylethyl)-3-phenyl-4-[(phenylamino)carbonyl]-1H-pyrrole-1-heptanoic acid, calcium salt (2:1), trihydrate], the Tg in data set [1] came out at 111 °C.
The same measure, in the same setting: under `C[C@@H]1CC[C@@]2(OC1)O[C@H]1C[C@H]3[C@@H]4CC[C@H]5C[C@@H](O[C@@H]6O[C@H](CO)[C@@H](O[C@@H]7O[C@H](COC(=O)Nc8ccccc8F)[C@@H](OC(=O)Nc8ccccc8F)[C@H](O)[C@H]7O)[C@H](O)[C@H]6O)CC[C@]5(C)[C@H]4CC(=O)[C@]3(C)[C@H]1[C@@H]2C` [3-[(4-O-{4,6-bis(2-flurophenylcarbamoyl)]-β-D-glucopyranolsyl-)β-D-flucopyranosyl]oxy-(3β,5α,25R)-spirostan-12-one] stands 143 °C.
Same read-out and setting: with `O=C(NC(Cc1ccccc1)C(=O)N1CC(O)C1)c1cc2cc(Cl)ccc2[nH]1` (stereo not drawn) [5-chloro-1H-indole-2-carboxylic acid [(1)-benzyl-2-(3-hydroxy-azetidin-1-yl)-2-oxo-ethyl]-amide] the figure was 91 °C.
On the same count and under the same terms, under `Cl.Cl.O=C(O)COCCN1CCN(C(c2ccccc2)c2ccc(Cl)cc2)CC1` (stereo not drawn) [(2(-(4-((4-chlorophenyl)phenylmethyl)-1-piperazinyl)ethoxy)acetic acid, dihrochloride] stands 112 °C.
As for `CCOC(=O)N1c2ccc(C(F)(F)F)cc2[C@@H](N(Cc2cc(C(F)(F)F)cc(C(F)(F)F)c2)C(=O)OC)C[C@H]1CC` [Control C6, Torcetrapib], the “Cmax90” value in data set [2] (Drug 4, initial 90 minutes) is less than 1000 ng/mL. In addition, the AUC90 in data set [2] (Drug 4, initial 90 minutes, Table 12) was less than 1470 ng·h/mL; in data set [2] (Drug 4, initial 90 minutes, Table 15), less than 88 min-μg/mL; in data set [2] (Drug 4, initial 90 minutes, Table 18), less than 1470 ng·h/mL. In addition, the AUC in data set [2] (Drug 4, time 0 min) is on record as 0 min-μg/mL; in data set [2] (Drug 4, time 4 min), less than 2 min-μg/mL; in data set [2] (Drug 4, time 10 min), less than 8 min-μg/mL; in data set [2] (Drug 4, time 20 min), less than 18 min-μg/mL; in data set [2] (Drug 4, time 40 min), less than 38 min-μg/mL; in data set [2] (Drug 4, time 90 min), less than 88 min-μg/mL. Besides, the AUC in data set [2] (Drug 4, time 1200 min) is recorded as <1,200 min-μg/mL. Moreover, the “Drug 4 Concentration” value in data set [2] (time 0 min) was 0 µg/mL; in data set [2] (time 4 min) it was less than 1 µg/mL; in data set [2] (time 10 min) it was less than 1 µg/mL; in data set [2] (time 20 min), less than 1 µg/mL; in data set [2] (time 40 min), less than 1 µg/mL; in data set [2] (time 90 min) it was less than 1 µg/mL. Also, the “Drug 4 Concentration” value in data set [2] (time 1200 min) is less than 1 µg/mL.
In turn, `O=C(N[C@@H](Cc1ccccc1)[C@@H](O)C(=O)N1C[C@@H](O)[C@@H](O)C1)c1cc2cc(Cl)ccc2[nH]1` [Drug 1, 5-chloro-1H-indole-2-carboxylic acid [(1S)-benzyl-(2R)-hydroxy-3-((3R,4S)-dihydroxy-pyrrolidin-1-yl-)-3-oxypropyl]amide] displayed a Tg in data set [1] of 96 °C. Further, the “Tg,drug” value in data set [1] (at ambient RH) turned out to be 113 °C.
Take `O=C(N[C@@H](Cc1ccccc1)[C@@H](O)C(=O)N1C[C@@H](O)[C@@H](O)C1)c1cc2cc(Cl)ccc2[nH]1` [Example C1, 5-chloro-1H-indole-2-carboxylic acid [(1S)-benzyl-(2R)-hydroxy-3-((3R,4S)-dihydroxy-pyrrolidin-1-yl-)-3-oxypropyl]amide]: the AUC90 in data set [3] (Drug 1, MFD, initial 90 minutes) is on record as 21,600 min * μg/mL. The same compound registered an MDC90 in data set [3] (Drug 1, MFD, maximum drug concentration during initial 90 minutes) of 255 µg/mL. For the same compound, the AUC in data set [3] (Drug 1, time 0 min) was 0 µg·min/mL; in data set [3] (Drug 1, time 4 min), 400 µg·min/mL; in data set [3] (Drug 1, time 10 min), 1700 µg·min/mL; in data set [3] (Drug 1, time 20 min), 4100 µg·min/mL; in data set [3] (Drug 1, time 40 min), 9000 µg·min/mL; in data set [3] (Drug 1, time 90 min), 21,600 min * μg/mL. In addition, the AUC in data set [3] (Drug 1, time 1200 min) is 299,000 min * μg/mL. The “Drug 1 Concentration” value in data set [3] (time 0 min) worked out at 0 µg/mL; in data set [3] (time 4 min), 204 µg/mL; in data set [3] (time 10 min), 227 µg/mL; in data set [3] (time 20 min) it was 243 µg/mL; in data set [3] (time 40 min), 250 µg/mL; in data set [3] (time 90 min), 255 µg/mL. Moreover, the “Drug 1 Concentration” value in data set [3] (time 1200 min) was determined as 244 µg/mL.
As for `O=C1Cc2cc(CCN3CCN(c4nsc5ccccc45)CC3)c(Cl)cc2N1` [Ziprasidone], in data set [1], the Tg is 72 °C.
The same measure, in the same setting: with `CCC(CC)Nc1cc(C)nc(Oc2c(C)cc(C)cc2C)c1C.Cl` [[3,6-dimethyl-2-(2,4,6-trimethyl-phenoxy)-pyridin-4-yl]-(1-ethyl-propyl)-amine hydrochloride] the figure was 87 °C.
